The values below come from patent publication US20260042755A1, “GPR6 INVERSE AGONISTS” (MapLight Therapeutics, Inc., priority 2022, published 2026).

For assay [1], the target named is T1, GPR3 (Homo sapiens, UniProt P46089).
T1 construct: expressed in transfected cells; host or cells: CHO cells
Put plainly: GPR3 antagonist functional cAMP assay (LANCE Ultra cAMP TR-FRET, CHO cells stably expressing GPR3). The format is cell-based. An outline of the steps:
(§1)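 We measure cAMP by TR-FRET (665 nm) in cells held in glucose-containing Krebs-Ringer buffer with BSA and a PDE inhibitor, after a 45 min, 37 °C compound incubation. IC50s derive from a four-parameter logistic fit.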

The target of assay [2] is T2, GPR6 (Homo sapiens, UniProt P46095).
T2 construct: expressed in transfected cells; host or cells: CHO cells
Put plainly: GPR6 antagonist functional cAMP assay (LANCE Ultra cAMP TR-FRET, CHO cells stably expressing GPR6). Format: cell-based. An outline of the steps: as §1

The mark [3] stands for this setting: CHO cells stably expressing GPR3, cAMP assay (Example 24).
Setting [4] is: CHO cells stably expressing GPR6, cAMP assay (Example 24).

SMILES strings stand for the structures.

T1 sequence (P46089 whole entry, species assumed): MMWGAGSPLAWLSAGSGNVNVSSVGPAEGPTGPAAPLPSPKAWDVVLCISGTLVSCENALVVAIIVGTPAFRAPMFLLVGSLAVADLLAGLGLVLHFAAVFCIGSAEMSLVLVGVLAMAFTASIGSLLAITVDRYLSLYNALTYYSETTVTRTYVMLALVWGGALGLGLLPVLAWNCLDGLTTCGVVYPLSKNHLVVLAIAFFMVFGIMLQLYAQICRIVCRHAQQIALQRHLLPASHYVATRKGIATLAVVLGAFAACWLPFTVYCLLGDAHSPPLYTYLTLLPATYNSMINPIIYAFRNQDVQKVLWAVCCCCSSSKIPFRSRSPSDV
T2 sequence (P46095 whole entry): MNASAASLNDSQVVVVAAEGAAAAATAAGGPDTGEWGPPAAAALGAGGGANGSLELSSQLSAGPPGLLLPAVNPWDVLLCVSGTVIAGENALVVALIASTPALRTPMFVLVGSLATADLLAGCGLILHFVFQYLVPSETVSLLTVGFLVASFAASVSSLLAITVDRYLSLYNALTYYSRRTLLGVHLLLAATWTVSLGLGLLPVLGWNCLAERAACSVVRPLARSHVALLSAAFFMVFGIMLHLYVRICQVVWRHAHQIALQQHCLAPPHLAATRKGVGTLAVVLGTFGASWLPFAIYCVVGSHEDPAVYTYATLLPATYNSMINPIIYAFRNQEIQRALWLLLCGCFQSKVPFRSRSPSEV

`CC(=O)N1CCc2nc(N3CCC(Oc4ccc(F)cc4F)CC3)c(C3CCCC(=O)N3)nc2C1` (centres unmarked) [Compound 258, 6-{6-acetyl-2-[4-(2,4-difluorophenoxy)piperidin-1-yl]-5H,6H,7H,8H-pyrido[3,4-b]pyrazin-3-yl}piperidin-2-one]: the IC50 in assay [1] (setting [3]) was at least 30 µM; in assay [2] (setting [4]), at least 30000 nM.
For the molecule `Cn1cc(-c2nc3cnccc3nc2N2CCN(Cc3ccc(F)cc3F)CC2=O)cn1` [Compound 259, 4-(2,4-difluorobenzyl)-1-(3-(1-methyl-1H-pyrazol-4-yl)pyrido[3,4-b]pyrazin-2-yl)piperazin-2-one], the IC50 in assay [1] (setting [3]) is at least 30 µM; in assay [2] (setting [4]), at least 30000 nM.
On the same counts, the results for `CCn1cc(-c2nc3c(nc2N2CCC(Oc4ccc(F)cc4F)CC2)CCN(C(=O)OC(C)(C)C)C3)cn1` [Compound 260, tert-butyl 2-[4-(2,4-difluorophenoxy)piperidin-1-yl]-3-(1-ethyl-1H-pyrazol-4-yl)-5H,6H,7H,8H-pyrido[3,4-b]pyrazine-6-carboxylate] are 1 to 30 µM and 1000 to 30000 nM.
On the same counts, the results for `Cn1cc(-c2nc3cnc(C(O)C(C)(C)O)cc3nc2N2CCC(Oc3ccc(F)cc3F)CC2)cn1` (centres unmarked) [Compound 263, 1-(2-(4-(2,4-difluorophenoxy)piperidin-1-yl)-3-(1-methyl-1H-pyrazol-4-yl)pyrido[3,4-b]pyrazin-7-yl)-2-methylpropane-1,2-diol] are 1 to 30 µM and 100 to 1000 nM.
As to `CC(C)(O)C(O)c1cc2nc(N3CCN(Cc4ccc(F)cc4F)CC3)c(-c3cnn(C(F)F)c3)nc2cn1` (centres unmarked) [Compound 264, 1-{3-[1-(difluoromethyl)-1H-pyrazol-4-yl]-2-{4-[(2,4-difluorophenyl)methyl]piperazin-1-yl}pyrido[3,4-b]pyrazin-7-yl}-2-methylpropane-1,2-diol], the values for the IC50 in assay [1] (setting [3]) and in assay [2] (setting [4]) were 1 to 30 µM and below 100 nM, respectively.
On to `CC(=O)N1CCc2nc(N3CCC(Oc4ccc(F)cc4F)CC3)c(C3CCNCC3)nc2C1` [Compound 265, 1-{2-[4-(2,4-difluorophenoxy)piperidin-1-yl]-3-(piperidin-4-yl)-5H,6H,7H,8H-pyrido[3,4-b]pyrazin-6-yl}ethan-1-one], for which the IC50 in assay [1] (setting [3]) lay within 1 to 30 µM; in assay [2] (setting [4]), 1000 to 30000 nM.
As for `CCn1cc(-c2nc3c(nc2N2CCC(Oc4ccc(F)cc4F)CC2)CCN(S(=O)(=O)C(C)C)C3)cn1` [Compound 266, 4-(2,4-difluorophenoxy)-1-[3-(1-ethyl-1H-pyrazol-4-yl)-6-(propane-2-sulfonyl)-5H,6H,7H,8H-pyrido[3,4-b]pyrazin-2-yl]piperidine], the values for the IC50 in assay [1] (procedure of Example 24) and in assay [2] (procedure of Example 24) were 1 to 30 µM and below 100 nM, respectively.
On the same counts, the results for `CCn1cc(-c2nc3c(nc2N2CCC(Oc4ccc(F)cc4F)CC2)CCN(S(=O)(=O)CC)C3)cn1` [Compound 267, 4-(2,4-difluorophenoxy)-1-[6-(ethanesulfonyl)-3-(1-ethyl-1H-pyrazol-4-yl)-5H,6H,7H,8H-pyrido[3,4-b]pyrazin-2-yl]piperidine] are 1 to 30 µM and 100 to 1000 nM.
`Cn1cc(-c2nc3cc(C(O)C(C)(C)O)ncc3nc2N2CCN(Cc3ccc(F)cc3F)CC2)cn1` (centres unmarked) [Compound 268, 1-(3-{4-[(2,4-difluorophenyl)methyl]piperazin-1-yl}-2-(1-methyl-1H-pyrazol-4-yl)pyrido[3,4-b]pyrazin-7-yl)-2-methylpropane-1,2-diol]: the IC50 in assay [1] (procedure of Example 24) was 1 to 30 µM; in assay [2] (procedure of Example 24) it was below 100 nM.
On the same counts, the results for `CCn1cc(-c2nc3c(nc2N2CCC(Oc4ccc(F)cc4F)CC2)CCN(S(C)(=O)=O)C3)cn1` [Compound 269, 4-(2,4-difluorophenoxy)-1-[3-(1-ethyl-1H-pyrazol-4-yl)-6-methanesulfonyl-5H,6H,7H,8H-pyrido[3,4-b]pyrazin-2-yl]piperidine] are 1 to 30 µM and below 100 nM.
